Source: US9677045B2, “Microorganisms and methods for production of 4-hydroxybutyrate, 1,4-butanediol and related compounds” (priority 2012, dated 2017)

Key:
[1] = system: aminotransferase from Leishmania mexicana; details: activity considered 100% on tyrosine; enzyme expressed in E. coli; cited from earlier work
[2] = molecular target: homoserine kinase (Escherichia coli, UniProt P00547); details: cited from earlier work; for % kcat: relative to L-homoserine
[3] = system: Aldehyde dehydrogenase; experiment: Aldehyde dehydrogenase (ALD) assay in the reductive direction, cell extracts; details: extracts of MG1655 lacI^Q with pZA33
Experimental: (§1) In Vitro Enzyme Assays. To obtain crude extracts for activity assays, cells were harvested by centrifugation at 4,500 rpm (Beckman-Coulter, Allegera X-15R) for 10 min. The pellets were resuspended in 0.3 mL BugBuster (Novagen) reagent with benzonase and lysozyme, and lysis proceeded for 15 minutes at room temperature with gentle shaking. Cell-free lysate was obtained by centrifugation at 14,000 rpm (Eppendorf centrifuge 5402) for 30 min at 4° C. Cell protein in the sample was determined using the method of Bradford et al., Anal. Biochem. 72:248-254 (1976), and specific enzyme assays conducted as described below. Activities are reported in Units/mg protein, where a unit of activity is defined as the amount of enzyme required to convert 1 mmol of substrate in 1 min. at room temperature. In general, reported values are averages of at least 3 replicate assays.
(§2) Alcohol (ADH) and aldehyde (ALD) dehydrogenase was assayed in the reductive direction using a procedure adapted from several literature sources (Durre et al., FEMS Microbiol. Rev. 17:251-262 (1995); Palosaari and Rogers, J. Bacteriol. 170:2971-2976 (1988) and Welch et al., Arch. Biochem. Biophys. 273:309-318 (1989). The oxidation of NADH is followed by reading absorbance at 340 nm every four seconds for a total of 240 seconds at room temperature. The reductive assays were performed in 100 mM MOPS (adjusted to pH 7.5 with KOH), 0.4 mM NADH, and from 1 to 50 μl of cell extract. The reaction is started by adding the following reagents: 100 μl of 100 mM acetaldehyde or butyraldehyde for ADH, or 100 μl of 1 mM acetyl-CoA or butyryl-CoA for ALD. The Spectrophotometer is quickly blanked and then the kinetic read is started. The resulting slope of the reduction in absorbance at 340 nm per minute, along with the molar extinction coefficient of NAD(P)H at 340 nM (6000) and the protein concentration of the extract, can be used to determine the specific activity.
(§3) Gene candidates for the 4-HB to BDO conversion pathway were next tested for activity when expressed in the E. coli host MG1655 lacI^Q. Recombinant strains containing each gene candidate expressed on pZA33 were grown in the presence of 0.25 mM IPTG for four hours at 37° C. to fully induce expression of the enzyme. Four hours after induction, cells were harvested and assayed for ADH and ALD activity as described above.

[4] = system: Alcohol dehydrogenase; experiment: Alcohol dehydrogenase (ADH) assay in the reductive direction, cell extracts; details: extracts of MG1655 lacI^Q with pZA33
Experimental: as §1, §2, §3

[5] = system: 4-HB to BDO conversion pathway; experiment: Production of BDO from 10 mM 4-HB in recombinant E. coli strains
Experimental: For the BDO production experiments, cat2 from Porphyromonas gingivalis W83 (gene 0034) was included on pZA33 for the conversion of 4-HB to 4-HB-CoA, while the candidate dehydrogenase genes were expressed on pZE13. The host strain was MG1655 lacI^Q. Along with the alcohol and aldehyde dehydrogenase candidates, we also tested the ability of CoA-dependent succinic semialdehyde dehydrogenases (sucD) to function in this step, due to the similarity of the substrates. Cells were grown to an OD of about 0.5 in LB medium supplemented with 10 mM 4-HB, induced with 1 mM IPTG, and culture broth samples taken after 24 hours and analyzed for BDO as described below.
Finally, the construct was tested for participation in the conversion of 4-HB to BDO. Host strains were transformed with the pZA33-0020-0021 construct described and pZE13-0002, and compared to use of cat2 in BDO production using the aerobic procedure used above in FIG. 5.

Sequence of homoserine kinase (P00547 whole entry): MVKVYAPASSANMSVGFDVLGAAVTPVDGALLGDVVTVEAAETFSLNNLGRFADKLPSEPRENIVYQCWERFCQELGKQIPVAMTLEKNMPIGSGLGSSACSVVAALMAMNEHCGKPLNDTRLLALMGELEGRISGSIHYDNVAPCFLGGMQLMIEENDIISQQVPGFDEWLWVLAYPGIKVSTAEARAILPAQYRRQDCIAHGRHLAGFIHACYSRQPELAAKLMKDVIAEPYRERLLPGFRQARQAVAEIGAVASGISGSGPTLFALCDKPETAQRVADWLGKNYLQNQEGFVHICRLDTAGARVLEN

N[C@@H](Cc1c[nH]c2ccccc12)C(=O)O [tryptophan]
activity relative to tyrosine [1]: 85%

N[C@@H](CC=O)C(=O)O [L-aspartate β-semialdehyde]
kcat [2]: 2.1 ± 0.1 | % kcat [2]: 8.2%

CSCC[C@H](N)C(=O)O [methionine]
activity relative to tyrosine [1]: 25%

CC(C)C[C@H](N)C(=O)O [leucine]
activity relative to tyrosine [1]: 25%

CCOC(=O)[C@@H](N)CCO [L-homoserine ethyl ester]
kcat [2]: 13.6 ± 0.8 | % kcat [2]: 74%

CC(C)COC(=O)[C@@H](N)CCO [L-homoserine isobutyl ester]
kcat [2]: 16.4 ± 0.8 | % kcat [2]: 84%

N[C@@H](CCO)C(=O)O [L-homoserine]
kcat [2]: 18.3 ± 0.1 | % kcat [2]: 100%

0011: Gene ID 0011: adhE, E. coli, Aldehyde/alcohol dehydrogenase [Sample 0011]
Aldehyde dehydrogenase activity ([3]; Substrate Acetyl-CoA): 0.0095 μmol min^−1 mg cell protein^−1 | Aldehyde dehydrogenase activity ([3]; Substrate Butyryl-CoA): 0.0069 μmol min^−1 mg cell protein^−1 | Alcohol dehydrogenase activity ([4]; Substrate Acetaldehyde): 0.0093 μmol min^−1 mg cell protein^−1 | Alcohol dehydrogenase activity ([4]; Substrate Butyraldehyde): 0.0265 μmol min^−1 mg cell protein^−1

N[C@H](CCO)C(=O)O [D-homoserine]
kcat [2]: 8.3 ± 1.1 | % kcat [2]: 32%

N[C@@H](Cc1ccc(O)cc1)C(=O)O [tyrosine]
activity relative to tyrosine [1]: 100%

N[C@@H](CCCO)C(=O)O [L-2-amino-5-hydroxyvalerate]
kcat [2]: 2.5 ± 0.4 | % kcat [2]: 9.9%

COC(=O)[C@@H](N)CCO [L-homoserine methyl ester]
kcat [2]: 14.7 ± 2.6 | % kcat [2]: 80%

CCCCOC(=O)[C@@H](N)CCO [L-homserine n-butyl ester]
kcat [2]: 29.1 ± 1.2 | % kcat [2]: 160%

N[C@H](CO)CCO [L-2-amino-1,4-butanediol]
kcat [2]: 2.0 ± 0.5 | % kcat [2]: 7.9%

CC(C)OC(=O)[C@@H](N)CCO [L-homoserine isopropyl ester]
kcat [2]: 13.6 ± 1.4 | % kcat [2]: 74%

N[C@@H](Cc1ccccc1)C(=O)O [phenylalanine]
activity relative to tyrosine [1]: 90%

CCCOC(=O)[C@@H](N)CCO [L-homoserine n-propyl ester]
kcat [2]: 14.0 ± 0.4 | % kcat [2]: 76%

B1: 0034: Gene ID 0034: cat2, Porphyromonas gingivalis W83, 4-hydroxybutyrate coenzyme A transferase (protein, listed as Porphyromonas gingivalis)
chain: MKDVLAEYASRIVSAEEAVKHIKNGERVALSHAAGVPQSCVDALVQQADLFQNVEIYHMLCLGEGKYMAPEMAPHFRHITNFVGGNSRKAVEENRADFIPVFFYEVPSMIRKDILHIDVAIVQLSMPDENGYCSFGVSCDYSKPAAESAHLVIGEINRQMPYVHGDNLIHISKLDYIVMADYPIYSLAKPKIGEVEEAIGRNCAELIEDGATLQLGIGAIPDAALLFLKDKKDLGIHTEMFSDGVVELVRSGVITGKKKTLHPGKMVATFLMGSEDVYHFIDKNPDVELYPVDYVNDPRVIAQNDNMVSINSCIEIDLMGQVVSECIGSKQFSGTGGQVDYVRGAAWSKNGKSIMAIPSTAKNGTASRIVPIIAEGAAVTTLRNEVDYVVTEYGIAQLKGKSLRQRAEALIAIAHPDFREELTKHLRKRFG
BDO/OD ([5]; Host MG1655 lacI^Q): 0.042 | BDO ([5]; Host MG1655 lacI^Q, adhE2 in pZE13, aerobic procedure): 0.827 µM | BDO/OD ([5]; Host MG1655 ΔadhE lacI^Q): 0.166 | BDO ([5]; Host MG1655 ΔadhE lacI^Q, adhE2 in pZE13, aerobic procedure): 2.084 µM

B2: 0026: Gene ID 0026: bdhA, Clostridium acetobutylicum ATCC 824, Butanol dehydrogenase (protein, UniProt Q04944 1-389, looked up)
NADH-dependent butanol …: MLSFDYSIPTKVFFGKGKIDVIGEEIKKYGSRVLIVYGGGSIKRNGIYDRATAILKENNIAFYELSGVEPNPRITTVKKGIEICRENNVDLVLAIGGGSAIDCSKVIAAGVYYDGDTWDMVKDPSKITKVLPIASILTLSATGSEMDQIAVISNMETNEKLGVGHDDMRPKFSVLDPTYTFTVPKNQTAAGTADIMSHTFESYFSGVEGAYVQDGIAEAILRTCIKYGKIAMEKTDDYEARANLMWASSLAINGLLSLGKDRKWSCHPMEHELSAYYDITHGVGLAILTPNWMEYILNDDTLHKFVSYGINVWGIDKNKDNYEIAREAIKNTREYFNSLGIPSKLREVGIGKDKLELMAKQAVRNSGGTIGSLRPINAEDVLEIFKKSY
Aldehyde dehydrogenase activity ([3]; Substrate Acetyl-CoA): 0.0005 μmol min^−1 mg cell protein^−1 | Aldehyde dehydrogenase activity ([3]; Substrate Butyryl-CoA): 0 μmol min^−1 mg cell protein^−1 | Alcohol dehydrogenase activity ([4]; Substrate Acetaldehyde): 0.0008 μmol min^−1 mg cell protein^−1 | Alcohol dehydrogenase activity ([4]; Substrate Butyraldehyde): 0.0024 μmol min^−1 mg cell protein^−1

B3: 0013: Gene ID 0013: bdhB, Clostridium acetobutylicum ATCC 824, Butanol dehydrogenase II (protein, UniProt Q04945 1-390, looked up)
NADH-dependent butanol …: MVDFEYSIPTRIFFGKDKINVLGRELKKYGSKVLIVYGGGSIKRNGIYDKAVSILEKNSIKFYELAGVEPNPRVTTVEKGVKICRENGVEVVLAIGGGSAIDCAKVIAAACEYDGNPWDIVLDGSKIKRVLPIASILTIAATGSEMDTWAVINNMDTNEKLIAAHPDMAPKFSILDPTYTYTVPTNQTAAGTADIMSHIFEVYFSNTKTAYLQDRMAEALLRTCIKYGGIALEKPDDYEARANLMWASSLAINGLLTYGKDTNWSVHLMEHELSAYYDITHGVGLAILTPNWMEYILNNDTVYKFVEYGVNVWGIDKEKNHYDIAHQAIQKTRDYFVNVLGLPSRLRDVGIEEEKLDIMAKESVKLTGGTIGNLRPVNASEVLQIFKKSV
Alcohol dehydrogenase activity ([4]; Substrate Acetaldehyde): 0.0142 μmol min^−1 mg cell protein^−1 | Alcohol dehydrogenase activity ([4]; Substrate Butyraldehyde): 0.0130 μmol min^−1 mg cell protein^−1

B4: 0002: Gene ID 0002: adhE, Clostridium acetobutylicum ATCC 824, Aldehyde/alcohol dehydrogenase (protein, UniProt P33744 1-862, looked up)
Aldehyde-alcohol dehydrogenase: MKVTTVKELDEKLKVIKEAQKKFSCYSQEMVDEIFRNAAMAAIDARIELAKAAVLETGMGLVEDKVIKNHFAGEYIYNKYKDEKTCGIIERNEPYGITKIAEPIGVVAAIIPVTNPTSTTIFKSLISLKTRNGIFFSPHPRAKKSTILAAKTILDAAVKSGAPENIIGWIDEPSIELTQYLMQKADITLATGGPSLVKSAYSSGKPAIGVGPGNTPVIIDESAHIKMAVSSIILSKTYDNGVICASEQSVIVLKSIYNKVKDEFQERGAYIIKKNELDKVREVIFKDGSVNPKIVGQSAYTIAAMAGIKVPKTTRILIGEVTSLGEEEPFAHEKLSPVLAMYEADNFDDALKKAVTLINLGGLGHTSGIYADEIKARDKIDRFSSAMKTVRTFVNIPTSQGASGDLYNFRIPPSFTLGCGFWGGNSVSENVGPKHLLNIKTVAERRENMLWFRVPHKVYFKFGCLQFALKDLKDLKKKRAFIVTDSDPYNLNYVDSIIKILEHLDIDFKVFNKVGREADLKTIKKATEEMSSFMPDTIIALGGTPEMSSAKLMWVLYEHPEVKFEDLAIKFMDIRKRIYTFPKLGKKAMLVAITTSAGSGSEVTPFALVTDNNTGNKYMLADYEMTPNMAIVDAELMMKMPKGLTAYSGIDALVNSIEAYTSVYASEYTNGLALEAIRLIFKYLPEAYKNGRTNEKAREKMAHASTMAGMASANAFLGLCHSMAIKLSSEHNIPSGIANALLIEEVIKFNAVDNPVKQAPCPQYKYPNTIFRYARIADYIKLGGNTDEEKVDLLINKIHELKKALNIPTSIKDAGVLEENFYSSLDRISELALDDQCTGANPRFPLTSEIKEMYINCFKKQP
Aldehyde dehydrogenase activity ([3]; Substrate Acetyl-CoA): 0.0046 μmol min^−1 mg cell protein^−1 | Aldehyde dehydrogenase activity ([3]; Substrate Butyryl-CoA): 0.0076 μmol min^−1 mg cell protein^−1 | Alcohol dehydrogenase activity ([4]; Substrate Acetaldehyde): 0.0247 μmol min^−1 mg cell protein^−1 | Alcohol dehydrogenase activity ([4]; Substrate Butyraldehyde): 0.0264 μmol min^−1 mg cell protein^−1 | BDO/OD ([5]; Aerobic): 15.2 | BDO ([5]; Aerobic, 10 mM 4-HB, 24 hours, cat2 (0034) on pZA33): 138.3 µM | BDO/OD ([5]; Anaerobic): 40.5 | BDO ([5]; Anaerobic, 10 mM 4-HB, 24 hours, cat2 (0034) on pZA33): 54.7 µM | BDO/OD ([5]; Microaerobic): 8.73 | BDO ([5]; Microaerobic, 10 mM 4-HB, 24 hours, cat2 (0034) on pZA33): 48.2 µM
